Consider 7 compounds from ChEMBL document CHEMBL1687812, “Interplay between drug efflux and antioxidants in Escherichia coli resistance to antibiotics” (2010).

What is called MIC is the lowest concentration that inhibits growth of the organism.

In assay [1] the test system is Escherichia coli. In words: Antibacterial activity against tolC deficient Escherichia coli GD100. In kind it is functional.
For assay [2], the system named is Escherichia coli. The experiment in a line: Antibacterial activity against tolC, gshB deficient Escherichia coli GD107. It is filed as functional.
Assay [3] concerns Escherichia coli. The experiment in a line: Antibacterial activity against gshB deficient Escherichia coli JW2914-1. In kind it is functional.
In assay [4] the test system is Escherichia coli. The experiment in a line: Antibacterial activity against speE deficient Escherichia coli JW0117-1. It is filed as functional.
In assay [5] the test system is Escherichia coli. In words: Antibacterial activity against gspS deficient Escherichia coli JW2956-1. In kind it is functional.
Assay [6] concerns Escherichia coli. The experiment in a line: Antibacterial activity against tolC, speE deficient Escherichia coli GD106. In kind it is functional.
Assay [7] concerns Escherichia coli. The experiment in a line: Antibacterial activity against wild type Escherichia coli BW25113. In kind it is functional.
For assay [8], the system named is Escherichia coli. The experiment in a line: Antibacterial activity against ygiBC, yjfMC, gspS deficient Escherichia coli GD108. It is filed as functional.
Assay [9] relates to Escherichia coli. In words: Antibacterial activity against tolC deficient Escherichia coli GD100 absence of glutathione. It is filed as functional.
In assay [10] the test system is Escherichia coli. The experiment in a line: Antibacterial activity against wild type Escherichia coli BW25113 absence of glutathione. It is filed as functional.
In assay [11] the test system is Escherichia coli. In words: Antibacterial activity against tolC deficient Escherichia coli GD100 presence of 15 mM of glutathione. It is filed as functional, organism-based.
Assay [12] concerns Escherichia coli. In words: Antibacterial activity against kanamycin-resistant acrAB, acrEF deficient Escherichia coli W4680AE presence of 10 mM of glutathione. In kind it is functional.
Assay [13] relates to Escherichia coli. The experiment in a line: Antibacterial activity against kanamycin-resistant acrAB, acrEF deficient Escherichia coli W4680AE absence of glutathione. In kind it is functional.
Assay [14] deals with Escherichia coli. In words: Antibacterial activity against wild type Escherichia coli BW25113 presence of 10 mM of glutathione. It is filed as functional.
The subject of assay [15] is Escherichia coli. In words: Antibacterial activity against tolC deficient Escherichia coli GD100 presence of 5 mM of glutathione. In kind it is functional.
The subject of assay [16] is Escherichia coli. The experiment in a line: Antibacterial activity against tolC deficient Escherichia coli GD100 presence of 10 mM of glutathione. In kind it is functional.
The subject of assay [17] is Escherichia coli. The experiment in a line: Antibacterial activity against wild type Escherichia coli BW25113 presence of 5 mM of glutathione. It is filed as functional.
Assay [18] deals with Escherichia coli. In words: Antibacterial activity against kanamycin-resistant acrAB, acrEF deficient Escherichia coli W4680AE presence of 15 mM of glutathione. In kind it is functional.
For assay [19], the system named is Escherichia coli. The experiment in a line: Antibacterial activity against kanamycin-resistant acrAB, acrEF deficient Escherichia coli W4680AE presence of 5 mM of glutathione. In kind it is functional.
For assay [20], the system named is Escherichia coli. The experiment in a line: Antibacterial activity against wild type Escherichia coli BW25113 presence of 15 mM of glutathione. It is filed as functional.

In brackets after ≈: the same amount, converted by molar mass. Activity calls are given as the source filed them. The rule behind the calls is not given here.

In the case of `NCC[C@H](O)C(=O)N[C@@H]1C[C@H](N)[C@@H](O[C@H]2O[C@H](CN)[C@@H](O)[C@H](O)[C@H]2O)[C@H](O)[C@H]1O[C@H]1O[C@H](CO)[C@@H](O)[C@H](N)[C@H]1O` [AMIKACIN], the minimum inhibitory concentration (MIC) turned out to be 1 µg/mL (≈ 1.71 µM) against Escherichia coli [1]; 2 µg/mL (≈ 3.42 µM) against Escherichia coli [2]; 4 µg/mL (≈ 6.83 µM) in the assay on Escherichia coli [3]; 16 µg/mL (≈ 27.3 µM) against Escherichia coli [4]; 2 µg/mL (≈ 3.42 µM) in the assay with Escherichia coli [5]; 8 µg/mL (≈ 13.7 µM) with Escherichia coli [6]. For the same compound, the minimum inhibitory concentration (MIC) in the assay with Escherichia coli [7] and in the assay with Escherichia coli [8] was 1 µg/mL (≈ 1.71 µM) in each case.

On to `CC1(C)S[C@@H]2[C@H](NC(=O)[C@H](N)c3ccccc3)C(=O)N2[C@H]1C(=O)O` [AMPICILLIN], for which the MIC is 5 µg/mL (≈ 14.3 µM) in the assay on Escherichia coli [1]; 5 µg/mL (≈ 14.3 µM) against Escherichia coli [2]; 10 µg/mL (≈ 28.6 µM) in the assay on Escherichia coli [3]; 5 µg/mL (≈ 14.3 µM) in the assay with Escherichia coli [4]; 10 µg/mL (≈ 28.6 µM) in the assay with Escherichia coli [5]; 5 µg/mL (≈ 14.3 µM) against Escherichia coli [6]. In addition, the minimum inhibitory concentration (MIC) with Escherichia coli [7] and in the assay with Escherichia coli [8] was 5 µg/mL (≈ 14.3 µM) each time.

Take `CC[C@H]1OC(=O)[C@H](C)[C@@H](O[C@H]2C[C@@](C)(OC)[C@@H](O)[C@H](C)O2)[C@H](C)[C@@H](O[C@@H]2O[C@H](C)C[C@H](N(C)C)[C@H]2O)[C@](C)(O)C[C@@H](C)C(=O)[C@H](C)[C@@H](O)[C@]1(C)O` [ERYTHROMYCIN]: the minimum inhibitory concentration (MIC) in the assay on Escherichia coli [1] is 1 µg/mL (≈ 1.36 µM); in the assay with Escherichia coli [9] it was 4 µg/mL (≈ 5.45 µM); in the assay on Escherichia coli [10], 128 µg/mL (≈ 174 µM); with Escherichia coli [12], 8 µg/mL; with Escherichia coli [2], 1 µg/mL (≈ 1.36 µM); against Escherichia coli [13], 4 µg/mL (≈ 5.45 µM). Besides, the minimal inhibitory concentration (MIC) with Escherichia coli [14] was 512 µg/mL; against Escherichia coli [3], 64 µg/mL (≈ 87.2 µM); with Escherichia coli [15], 4 µg/mL; with Escherichia coli [16] it was 4 µg/mL; in the assay on Escherichia coli [17], 512 µg/mL; in the assay on Escherichia coli [4], 32 µg/mL (≈ 43.6 µM). In addition, the MIC in the assay on Escherichia coli [18] amounted to 32 µg/mL; in the assay on Escherichia coli [19], 4 µg/mL; against Escherichia coli [5], 64 µg/mL (≈ 87.2 µM); against Escherichia coli [6] it was 1 µg/mL (≈ 1.36 µM); with Escherichia coli [20] it was 512 µg/mL; against Escherichia coli [7] it was 32 µg/mL (≈ 43.6 µM). In the assay on Escherichia coli [8], this compound showed an MIC of 64 µg/mL (≈ 87.2 µM). In the assay with Escherichia coli [11], the minimum inhibitory concentration (MIC) entry was “Active”.

As to `NC[C@H]1O[C@H](O[C@H]2[C@H](O)[C@@H](O[C@H]3O[C@H](CO)[C@@H](O)[C@H](N)[C@H]3O)[C@H](N)C[C@@H]2N)[C@H](O)[C@@H](O)[C@@H]1O` [KANAMYCIN], the MIC against Escherichia coli [1] came to 0.78 µg/mL (≈ 1.61 µM); in the assay on Escherichia coli [9], 1.56 µg/mL (≈ 3.22 µM); in the assay with Escherichia coli [10], 1.56 µg/mL (≈ 3.22 µM); against Escherichia coli [2] it was 3.12 µg/mL (≈ 6.45 µM); in the assay with Escherichia coli [14] it was 50 µg/mL; against Escherichia coli [3] it was 6.25 µg/mL (≈ 12.9 µM). Further, the MIC with Escherichia coli [15] is 25 µg/mL; in the assay on Escherichia coli [16] it was 50 µg/mL; in the assay with Escherichia coli [17], 25 µg/mL; against Escherichia coli [4] it was 12.5 µg/mL (≈ 25.8 µM); against Escherichia coli [5] it was 1.56 µg/mL (≈ 3.22 µM); in the assay with Escherichia coli [6] it was 6.25 µg/mL (≈ 12.9 µM). Further, the values for the minimum inhibitory concentration (MIC) in the assay with Escherichia coli [20], against Escherichia coli [7] and with Escherichia coli [8] were 50 µg/mL, 0.78 µg/mL (≈ 1.61 µM) and 1.56 µg/mL (≈ 3.22 µM), respectively. The MIC entry in the assay on Escherichia coli [11] was “Active”.

Consider `CCn1cc(C(=O)O)c(=O)c2cc(F)c(N3CCNCC3)cc21` [NORFLOXACIN], for which the MIC was found to be 0.01 µg/mL (≈ 0.0313 µM) in the assay on Escherichia coli [1]; 0.01 µg/mL (≈ 0.0313 µM) with Escherichia coli [9]; 0.04 µg/mL (≈ 0.125 µM) against Escherichia coli [10]; 0.02 µg/mL in the assay with Escherichia coli [12]; 0.0025 µg/mL (≈ 0.00783 µM) with Escherichia coli [2]; 0.005 µg/mL (≈ 0.0157 µM) against Escherichia coli [13]. The MIC was 0.64 µg/mL in the assay with Escherichia coli [14]; 0.04 µg/mL (≈ 0.125 µM) in the assay with Escherichia coli [3]; 0.02 µg/mL in the assay with Escherichia coli [15]; 0.08 µg/mL in the assay with Escherichia coli [16]; 0.16 µg/mL in the assay with Escherichia coli [17]; 0.02 µg/mL (≈ 0.0626 µM) with Escherichia coli [4]. Moreover, the minimal inhibitory concentration (MIC) turned out to be 0.16 µg/mL in the assay with Escherichia coli [18]; 0.01 µg/mL with Escherichia coli [19]; 0.02 µg/mL (≈ 0.0626 µM) in the assay with Escherichia coli [5]; 0.005 µg/mL (≈ 0.0157 µM) against Escherichia coli [6]; 1.28 µg/mL with Escherichia coli [20]; 0.04 µg/mL (≈ 0.125 µM) against Escherichia coli [7]. In the assay on Escherichia coli [8], this compound came in with an MIC of 0.01 µg/mL (≈ 0.0313 µM). The MIC entry in the assay with Escherichia coli [11] was “Active”.

Turning to `CO[C@@H]1[C@@H](OC(N)=O)[C@@H](O)[C@H](Oc2ccc3c(O)c(NC(=O)c4ccc(O)c(CC=C(C)C)c4)c(=O)oc3c2C)OC1(C)C` [NOVOBIOCIN], the minimum inhibitory concentration (MIC) against Escherichia coli [1] is 1 µg/mL (≈ 1.63 µM); in the assay on Escherichia coli [2], 1 µg/mL (≈ 1.63 µM); in the assay with Escherichia coli [3] it was 256 µg/mL (≈ 418 µM); against Escherichia coli [4] it was 64 µg/mL (≈ 104 µM); in the assay with Escherichia coli [5], 64 µg/mL (≈ 104 µM); against Escherichia coli [6], 1 µg/mL (≈ 1.63 µM). Also, the MIC in the assay on Escherichia coli [7] and in the assay on Escherichia coli [8] was 32 µg/mL (≈ 52.2 µM) throughout.

As for `CN[C@@H]1[C@H](O)[C@H](NC)[C@H]2O[C@@]3(O)C(=O)C[C@@H](C)O[C@H]3O[C@@H]2[C@H]1O` [SPECTINOMYCIN], the MIC with Escherichia coli [1] came to 12.5 µg/mL (≈ 37.6 µM); against Escherichia coli [2] it was 12.5 µg/mL (≈ 37.6 µM); with Escherichia coli [3], 25 µg/mL (≈ 75.2 µM); in the assay with Escherichia coli [4] it was 25 µg/mL (≈ 75.2 µM); in the assay with Escherichia coli [5] it was 25 µg/mL (≈ 75.2 µM); with Escherichia coli [6], 25 µg/mL (≈ 75.2 µM). Moreover, the MIC in the assay on Escherichia coli [7] and in the assay on Escherichia coli [8] was 25 µg/mL (≈ 75.2 µM) throughout.
